Experimental data published in ChEMBL document CHEMBL1124313, “Benzodiazepine gastrin and brain cholecystokinin receptor ligands: L-365,260” (J Med Chem, 1989).
pIC50: −log10 of the molar value.

Experiments:
[1] = target: T1, Cholecystokinin receptor type A (Rattus norvegicus, UniProt P30551); assay: Displacement of [125 I] CCK-8 from Cholecystokinin type A receptor of rat pancreas
T1 sequence (P30551 whole entry): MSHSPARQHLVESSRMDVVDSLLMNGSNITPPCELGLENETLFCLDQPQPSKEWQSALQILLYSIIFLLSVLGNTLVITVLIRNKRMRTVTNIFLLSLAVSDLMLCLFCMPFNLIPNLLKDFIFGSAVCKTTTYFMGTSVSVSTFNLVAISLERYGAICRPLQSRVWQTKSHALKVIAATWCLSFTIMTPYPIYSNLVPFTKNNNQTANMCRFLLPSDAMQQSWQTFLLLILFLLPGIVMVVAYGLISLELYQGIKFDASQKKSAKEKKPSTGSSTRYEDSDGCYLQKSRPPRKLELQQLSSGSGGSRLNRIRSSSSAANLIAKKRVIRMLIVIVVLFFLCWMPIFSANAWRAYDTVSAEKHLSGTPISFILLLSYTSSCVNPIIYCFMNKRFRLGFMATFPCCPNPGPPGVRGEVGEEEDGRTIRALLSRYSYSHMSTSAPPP

[2] = Displacement of 125 I-gastrin from gastrin receptor of guinea pig gastric glands

| Compound | pIC50 [1] | pIC50 [2] |
| --- | --- | --- |
| CN1C(=O)[C@@H](NC(=O)c2ccc(Cl)cc2)N=C(c2ccccc2F)c2ccccc21 | 9.41 |  |
| CN1C(=O)[C@H](NC(=O)c2ccc(Cl)cc2)N=C(c2ccccc2F)c2ccccc21 | 8.54 |  |
| O=C(Nc1ccc(Cl)cc1)NC1N=C(c2ccccc2F)c2ccccc2NC1=O (racemic) | 6.96 |  |
| CCOC(=O)CN1C(=O)C(NC(=O)c2ccc(Cl)cc2)N=C(c2ccccc2F)c2ccccc21 (racemic) |  | 6.16 |
